In ChEMBL document CHEMBL2434905, “2-Amino-6-chloro-3,4-dihydroquinazoline: A novel 5-HT3 receptor antagonist with antidepressant character” (Bioorg Med Chem Lett, 2013):

What was measured:
D(1B) dopamine receptor = D(1B) dopamine receptor (Homo sapiens, UniProt P21918); assay: Displacement of [3H]SCH23390 from human recombinant dopamine D5 receptor expressed in HEK cells after 90 mins by scintillation counting analysis; assay type: cell-based, HEK293
D(3) dopamine receptor = D(3) dopamine receptor (Homo sapiens, UniProt P35462); assay: Displacement of [3H]N-methylspiperone from dopamine D3 receptor (unknown origin) after 90 mins by scintillation counting analysis
D(2) dopamine receptor = D(2) dopamine receptor (Homo sapiens, UniProt P14416); assay: Displacement of [[3H]N-methylspiperone from human recombinant dopamine D2 receptor expressed in human fibroblasts after 90 mins by scintillation counting analysis
D(1A) dopamine receptor = D(1A) dopamine receptor (Homo sapiens, UniProt P21728); assay: Displacement of [3H]SCH23390 from human recombinant dopamine D1 receptor expressed in HEK cells after 90 mins by scintillation counting analysis; assay type: cell-based, HEK293
[1] = Displacement of [3H]Flunitrazepam from BZP receptor in rat brain after 90 mins by scintillation counting analysis; assay type: tissue-based
[2] = target: Beta-3 adrenergic receptor (Homo sapiens, UniProt P13945); assay: Binding affinity to human recombinant beta3-adrenoceptor expressed in HEK cells after 90 mins by radioligand displacement assay; assay type: cell-based, HEK293
[3] = target: Beta-2 adrenergic receptor (Homo sapiens, UniProt P07550); assay: Displacement of [3H]CGP12177 from human recombinant beta2-adrenoceptor expressed in HEK cells after 90 mins by scintillation counting analysis; assay type: cell-based, HEK293
[4] = target: Alpha-1D adrenergic receptor (Homo sapiens, UniProt P25100); assay: Displacement of [3H]Prazosin from human recombinant alpha1D-adrenoceptor after 90 mins by scintillation counting analysis
[5] = target: Beta-1 adrenergic receptor (Homo sapiens, UniProt P08588); assay: Binding affinity to human recombinant beta1-adrenoceptor expressed in CHO cells after 90 mins by radioligand displacement assay; assay type: cell-based
[6] = target: Alpha-1B adrenergic receptor (Homo sapiens, UniProt P35368); assay: Displacement of [3H]Prazosin from human recombinant alpha1B-adrenoceptor expressed in HEK cells after 90 mins by scintillation counting analysis; assay type: cell-based, HEK293
[7] = target: Alpha-1A adrenergic receptor (Homo sapiens, UniProt P35348); assay: Displacement of [3H]Prazosin from human recombinant alpha1A-adrenoceptor after 90 mins by scintillation counting analysis
[8] = target: Neuronal acetylcholine receptor; alpha4/beta2 (Homo sapiens, UniProt P17787+P43681); assay: Displacement of [3H]-epibatidine from human alpha4beta2 nAChR transfected in HEK293 cells by scintillation counting analysis; assay type: cell-based
[9] = target: Nicotinic acetylcholine receptor alpha2/beta4 (Homo sapiens, UniProt P02708+P30926); assay: Displacement of [3H]-epibatidine from human alpha2beta4 nAChR transfected in HEK293 cells by scintillation counting analysis; assay type: cell-based
[10] = target: Neuronal acetylcholine receptor; alpha3/beta2 (Homo sapiens, UniProt P17787+P32297); assay: Displacement of [3H]-epibatidine from human alpha3beta2 nAChR transfected in HEK293 cells by scintillation counting analysis; assay type: cell-based
[11] = target: Nicotinic acetylcholine receptor alpha2/beta2 (Homo sapiens, UniProt P02708+P17787); assay: Displacement of [3H]-epibatidine from human alpha2beta2 nAChR transfected in HEK293 cells by scintillation counting analysis; assay type: cell-based
[12] = target: 5-hydroxytryptamine receptor 4 (Homo sapiens, UniProt Q13639); assay: Displacement of [[3H]GR113808 from human recombinant 5-HT4 receptor after 90 mins by scintillation counting analysis
[13] = target: 5-hydroxytryptamine receptor 6 (Homo sapiens, UniProt P50406); assay: Displacement of [3H]LSD from human recombinant 5-HT6 receptor expressed in HEK cells after 90 mins by scintillation counting analysis; assay type: cell-based, HEK293
[14] = target: 5-hydroxytryptamine receptor 1B (Homo sapiens, UniProt P28222); assay: Displacement of [3H]5-CT from human recombinant 5-HT1B receptor expressed in HEK cells after 90 mins by scintillation counting analysis; assay type: cell-based, HEK293
[15] = target: 5-hydroxytryptamine receptor 1E (Homo sapiens, UniProt P28566); assay: Displacement of [3H]5-HT from human recombinant 5-HT1E receptor expressed in HEK cells after 90 mins by scintillation counting analysis; assay type: cell-based, HEK293
[16] = Displacement of [3H]DTG from sigma2 receptor (unknown origin) expressed in rat PC12 cells after 90 mins by scintillation counting analysis; assay type: cell-based, Homo sapiens; settings: pc-12
[17] = target: 5-hydroxytryptamine receptor 1A (Homo sapiens, UniProt P08908); assay: Displacement of [3H]Way100635 from human recombinant 5-HT1A receptor expressed in CHO cells after 90 mins by scintillation counting analysis; assay type: cell-based
[18] = target: Sigma non-opioid intracellular receptor 1 (Cavia porcellus, UniProt Q60492); assay: Displacement of [3H]Pentazocine from guinea pig sigma1 receptor after 90 mins by scintillation counting analysis
D(4) dopamine receptor = D(4) dopamine receptor (Homo sapiens, UniProt P21917); assay: Displacement of [3H]N-methylspiperone from dopamine D4 receptor (unknown origin) after 90 mins by scintillation counting analysis
[19] = target: Alpha-2C adrenergic receptor (Homo sapiens, UniProt P18825); assay: Displacement of [3H]Rauwolscine from human recombinant alpha2C-adrenoceptor expressed in MDCK cells after 90 mins by scintillation counting analysis; assay type: cell-based
[20] = target: Alpha-2B adrenergic receptor (Homo sapiens, UniProt P18089); assay: Displacement of [3H]Rauwolscine from human recombinant alpha2B-adrenoceptor expressed in HEK cells after 90 mins by scintillation counting analysis; assay type: cell-based, HEK293
[21] = target: Alpha-2A adrenergic receptor (Homo sapiens, UniProt P08913); assay: Displacement of [3H]Rauwolscine from human recombinant alpha2A-adrenoceptor expressed in MDCK cells after 90 mins by scintillation counting analysis; assay type: cell-based
Alpha-2A adrenergic receptor, sequence (P08913 whole entry): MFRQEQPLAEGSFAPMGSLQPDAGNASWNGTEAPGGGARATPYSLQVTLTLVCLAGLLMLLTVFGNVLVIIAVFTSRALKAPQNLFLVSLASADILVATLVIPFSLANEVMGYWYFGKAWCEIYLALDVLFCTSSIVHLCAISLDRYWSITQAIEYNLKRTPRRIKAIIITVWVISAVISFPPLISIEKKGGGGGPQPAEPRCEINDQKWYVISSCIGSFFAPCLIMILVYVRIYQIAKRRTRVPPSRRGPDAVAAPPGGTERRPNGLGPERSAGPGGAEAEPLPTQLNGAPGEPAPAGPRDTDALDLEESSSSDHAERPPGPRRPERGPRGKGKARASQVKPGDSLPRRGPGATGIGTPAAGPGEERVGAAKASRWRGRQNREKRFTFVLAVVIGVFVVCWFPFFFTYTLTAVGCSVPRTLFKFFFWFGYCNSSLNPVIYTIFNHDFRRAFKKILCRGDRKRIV

D(4) dopamine receptor, sequence (P21917 whole entry): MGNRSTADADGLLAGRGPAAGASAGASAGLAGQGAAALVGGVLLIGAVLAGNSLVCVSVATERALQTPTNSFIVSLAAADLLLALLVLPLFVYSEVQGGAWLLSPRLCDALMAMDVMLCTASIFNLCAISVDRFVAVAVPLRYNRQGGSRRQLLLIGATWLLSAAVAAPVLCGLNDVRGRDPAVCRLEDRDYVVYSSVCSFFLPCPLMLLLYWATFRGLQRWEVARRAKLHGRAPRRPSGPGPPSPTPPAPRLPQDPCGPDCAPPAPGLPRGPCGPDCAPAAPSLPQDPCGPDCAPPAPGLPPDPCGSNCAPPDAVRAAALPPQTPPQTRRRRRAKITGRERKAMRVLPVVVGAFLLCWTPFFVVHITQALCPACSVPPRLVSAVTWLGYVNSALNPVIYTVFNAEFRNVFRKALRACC
Sigma non-opioid intracellular receptor 1, sequence (Q60492 whole entry): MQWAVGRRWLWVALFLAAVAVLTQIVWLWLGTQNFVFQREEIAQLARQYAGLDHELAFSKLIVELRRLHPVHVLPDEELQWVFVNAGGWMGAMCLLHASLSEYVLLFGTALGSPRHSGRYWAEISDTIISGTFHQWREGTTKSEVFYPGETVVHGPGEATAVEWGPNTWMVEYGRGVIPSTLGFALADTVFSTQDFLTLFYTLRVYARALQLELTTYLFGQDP
Neuronal acetylcholine receptor; alpha3/beta2, sequence (P17787 whole entry): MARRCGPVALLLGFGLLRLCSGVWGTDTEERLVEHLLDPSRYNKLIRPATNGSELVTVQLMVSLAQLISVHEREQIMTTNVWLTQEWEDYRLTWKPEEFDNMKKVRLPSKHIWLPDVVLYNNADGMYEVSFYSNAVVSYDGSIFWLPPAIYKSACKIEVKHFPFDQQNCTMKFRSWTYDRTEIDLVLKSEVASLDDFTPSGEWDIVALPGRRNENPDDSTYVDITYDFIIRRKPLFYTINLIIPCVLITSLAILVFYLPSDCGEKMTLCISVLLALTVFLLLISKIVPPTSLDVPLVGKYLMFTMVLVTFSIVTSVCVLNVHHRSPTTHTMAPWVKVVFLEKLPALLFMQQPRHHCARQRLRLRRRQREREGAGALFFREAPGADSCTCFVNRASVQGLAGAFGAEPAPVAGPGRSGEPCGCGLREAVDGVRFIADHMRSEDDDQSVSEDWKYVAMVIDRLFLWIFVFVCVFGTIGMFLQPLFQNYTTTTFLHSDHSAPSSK
Neuronal acetylcholine receptor; alpha3/beta2, sequence (P32297 whole entry): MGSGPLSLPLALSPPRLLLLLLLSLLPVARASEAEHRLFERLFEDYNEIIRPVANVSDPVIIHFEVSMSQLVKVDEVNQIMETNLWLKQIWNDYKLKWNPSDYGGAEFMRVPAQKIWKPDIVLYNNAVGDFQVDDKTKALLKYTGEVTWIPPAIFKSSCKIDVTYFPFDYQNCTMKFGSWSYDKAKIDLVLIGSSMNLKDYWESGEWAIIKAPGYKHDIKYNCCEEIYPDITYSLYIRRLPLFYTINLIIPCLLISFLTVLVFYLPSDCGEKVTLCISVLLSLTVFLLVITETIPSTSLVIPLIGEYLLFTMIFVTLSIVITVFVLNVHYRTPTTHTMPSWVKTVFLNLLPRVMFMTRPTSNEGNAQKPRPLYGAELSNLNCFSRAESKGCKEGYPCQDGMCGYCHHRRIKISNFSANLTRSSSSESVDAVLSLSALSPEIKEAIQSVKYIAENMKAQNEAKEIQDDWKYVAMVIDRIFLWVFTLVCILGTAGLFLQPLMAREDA
Neuronal acetylcholine receptor; alpha4/beta2, sequence (P17787 whole entry): as the sequence (P17787 whole entry) above
Neuronal acetylcholine receptor; alpha4/beta2, sequence (P43681 whole entry): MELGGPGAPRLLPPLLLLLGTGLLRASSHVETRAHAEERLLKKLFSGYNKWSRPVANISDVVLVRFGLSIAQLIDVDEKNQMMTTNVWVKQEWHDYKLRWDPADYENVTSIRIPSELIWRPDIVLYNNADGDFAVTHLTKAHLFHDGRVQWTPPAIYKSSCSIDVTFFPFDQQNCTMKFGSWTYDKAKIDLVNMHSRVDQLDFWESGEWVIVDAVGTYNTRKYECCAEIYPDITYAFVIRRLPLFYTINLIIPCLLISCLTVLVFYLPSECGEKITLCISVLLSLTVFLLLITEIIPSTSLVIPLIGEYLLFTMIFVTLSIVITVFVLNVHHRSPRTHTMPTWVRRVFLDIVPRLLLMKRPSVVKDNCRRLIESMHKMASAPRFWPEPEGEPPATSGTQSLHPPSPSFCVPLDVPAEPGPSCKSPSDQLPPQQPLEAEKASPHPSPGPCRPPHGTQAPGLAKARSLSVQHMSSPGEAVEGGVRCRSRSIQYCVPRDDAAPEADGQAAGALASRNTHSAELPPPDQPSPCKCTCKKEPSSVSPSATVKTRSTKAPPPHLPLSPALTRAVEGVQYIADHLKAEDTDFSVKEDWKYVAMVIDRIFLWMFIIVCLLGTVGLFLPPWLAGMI
Beta-3 adrenergic receptor, sequence (P13945 whole entry): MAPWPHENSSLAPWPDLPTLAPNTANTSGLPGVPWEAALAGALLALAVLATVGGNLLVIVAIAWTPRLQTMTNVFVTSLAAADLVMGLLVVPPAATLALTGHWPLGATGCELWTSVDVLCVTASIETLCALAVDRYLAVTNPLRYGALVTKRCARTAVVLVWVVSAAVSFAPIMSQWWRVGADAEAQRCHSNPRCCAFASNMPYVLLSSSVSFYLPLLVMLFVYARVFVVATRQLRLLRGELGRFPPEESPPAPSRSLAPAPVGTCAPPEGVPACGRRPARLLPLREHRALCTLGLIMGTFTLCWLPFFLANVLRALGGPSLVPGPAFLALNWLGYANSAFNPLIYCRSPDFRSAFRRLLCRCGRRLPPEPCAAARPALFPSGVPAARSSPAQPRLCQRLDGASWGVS
5-hydroxytryptamine receptor 1B, sequence (P28222 whole entry): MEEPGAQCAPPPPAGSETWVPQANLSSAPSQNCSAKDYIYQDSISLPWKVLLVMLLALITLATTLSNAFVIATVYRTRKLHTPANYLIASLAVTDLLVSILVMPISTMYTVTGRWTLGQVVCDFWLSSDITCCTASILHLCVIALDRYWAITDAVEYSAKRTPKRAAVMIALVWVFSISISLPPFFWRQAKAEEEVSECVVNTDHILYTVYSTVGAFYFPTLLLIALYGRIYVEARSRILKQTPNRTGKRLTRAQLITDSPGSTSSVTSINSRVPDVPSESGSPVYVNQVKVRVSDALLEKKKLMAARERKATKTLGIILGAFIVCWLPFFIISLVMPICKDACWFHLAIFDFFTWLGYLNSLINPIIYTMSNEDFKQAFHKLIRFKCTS
5-hydroxytryptamine receptor 4, sequence (Q13639 whole entry): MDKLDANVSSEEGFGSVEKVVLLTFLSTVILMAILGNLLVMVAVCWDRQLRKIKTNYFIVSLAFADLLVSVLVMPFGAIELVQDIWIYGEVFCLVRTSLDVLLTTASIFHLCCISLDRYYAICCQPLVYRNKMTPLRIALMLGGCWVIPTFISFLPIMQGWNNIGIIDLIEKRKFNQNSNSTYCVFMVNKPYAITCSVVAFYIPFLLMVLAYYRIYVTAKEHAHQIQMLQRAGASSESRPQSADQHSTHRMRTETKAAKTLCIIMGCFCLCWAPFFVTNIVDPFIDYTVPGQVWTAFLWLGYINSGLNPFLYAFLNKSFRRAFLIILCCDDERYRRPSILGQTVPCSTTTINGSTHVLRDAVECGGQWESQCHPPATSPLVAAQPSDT
D(1B) dopamine receptor, sequence (P21918 whole entry): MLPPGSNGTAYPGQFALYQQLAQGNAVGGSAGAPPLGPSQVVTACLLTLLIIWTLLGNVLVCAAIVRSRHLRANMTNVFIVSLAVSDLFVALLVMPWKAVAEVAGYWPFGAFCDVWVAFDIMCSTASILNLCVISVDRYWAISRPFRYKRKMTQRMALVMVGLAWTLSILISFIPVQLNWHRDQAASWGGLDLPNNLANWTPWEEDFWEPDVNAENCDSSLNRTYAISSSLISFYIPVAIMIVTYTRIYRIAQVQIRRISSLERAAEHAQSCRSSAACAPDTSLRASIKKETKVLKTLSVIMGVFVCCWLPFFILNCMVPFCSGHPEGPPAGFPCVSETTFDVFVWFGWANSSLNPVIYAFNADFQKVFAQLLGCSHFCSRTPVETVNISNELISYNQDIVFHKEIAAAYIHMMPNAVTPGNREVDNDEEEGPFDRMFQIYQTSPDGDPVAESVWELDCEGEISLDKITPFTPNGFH
Beta-2 adrenergic receptor, sequence (P07550 whole entry): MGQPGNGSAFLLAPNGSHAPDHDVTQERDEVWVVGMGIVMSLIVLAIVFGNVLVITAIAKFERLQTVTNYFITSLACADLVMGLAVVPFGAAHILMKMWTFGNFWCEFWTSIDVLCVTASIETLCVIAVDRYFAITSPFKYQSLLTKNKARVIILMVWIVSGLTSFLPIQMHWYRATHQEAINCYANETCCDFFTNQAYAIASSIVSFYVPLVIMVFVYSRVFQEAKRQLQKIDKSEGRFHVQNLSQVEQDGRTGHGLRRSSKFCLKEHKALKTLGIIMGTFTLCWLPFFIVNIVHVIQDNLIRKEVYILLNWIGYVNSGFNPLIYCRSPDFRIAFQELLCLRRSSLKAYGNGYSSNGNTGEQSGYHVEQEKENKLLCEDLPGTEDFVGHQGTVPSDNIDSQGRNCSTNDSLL

What does the source list for Cl.NC1=Nc2ccc(Cl)cc2CN1?
Ki (D(1B) dopamine receptor): > 10 µM; Ki (D(3) dopamine receptor): > 10 µM; Ki (D(2) dopamine receptor): > 10 µM; Ki (D(1A) dopamine receptor): > 10 µM; Ki [1]: > 10 µM; Ki [2]: > 10 µM; Ki [3]: > 10 µM; Ki [4]: > 10 µM; Ki [5]: > 10 µM; Ki [6]: > 10 µM; Ki [7]: > 10 µM; Ki [8]: > 10 µM; Ki [9]: > 10 µM; Ki [10]: > 10 µM; Ki [11]: > 10 µM; Ki [12]: > 10 µM; Ki [13]: > 10 µM; Ki [14]: > 10 µM; Ki [15]: > 10 µM; Ki [16]: 2.65 µM; pKi [16]: 5.6; Ki [17]: > 10 µM; Ki [18]: 6.15 µM; Ki (D(4) dopamine receptor; read-out: Ki): 5.8 µM; Ki (D(4) dopamine receptor; read-out: pKi (converted)): 5.13 µM; Ki [19]: 0.84 µM; Ki [20]: 0.243 µM; Ki [21]: 0.283 µM
